ChEMBL document CHEMBL1135700, “Design, synthesis and activity of ascorbic acid prodrugs of nipecotic, kynurenic and diclophenamic acids, liable to increase neurotropic activity” (2002)

System: Mus musculus
Assay: Compound administered at a concentration of 0.75 mmol/kg intraperitoneally was evaluated for its effect on pentylenetetrazole induced convulsions in mice, measured as latency to convulsion

## C1CCc2nnnn2CC1.O=C1O[C@H]([C@@H](O)COC(=O)C2CCCNC2)C(O)=C1O (stereo partly specified)
  Latency: 922 s
